Some results are limits rather than exact numbers.

For data set [1] the following is noted: concentration of 0.5%; cited from earlier work.
The subject of data set [2] is chorioallantoic membrane of a fertilized chicken egg. As to the kind of experiment: Trypan blue staining (TBS) of the CAM. To be noted: after HET-CAM. Here is the method:
Furthermore, at the end of the HET-CAM experiment, in order to quantify the damage of the membrane, trypan blue staining (TBS) was applied. The CAM was treated with 1000 μL of 0.1% trypan blue solution for 1 min. Excess dye was rinsed off with distilled water. The dyed CAM was excised and extracted with 5 mL formamide, and the absorbance of the extract was measured spectrophotometrically at 595 nm. The absorbed trypan blue was determined from a calibration curve of trypan blue in formamide.

Data set [3] relates to CAM of embryonated eggs. Briefly: Antiangiogenic activity, modified CAM test. On the set-up: species or system chicken. The settings on record: 40 μL, 48 h. As for the experimental part:
To determine the antiangiogenic effects of Loaded Lipid Nanoparticles, a modified choriolantoic membrane (CAM) test was used. It was carried out using fertilised chicken eggs incubated at 37° C. and 85% humidity from the farm […] (Tarragona, Spain). A lateral window was opened on the eggshell on the 3rd day of incubation and after 24 h of stabilization, 40 μL of the sample were inoculated to the CAM. Afterwards the membrane was sealed and incubated for 48 h. The controls of the experiments were NaCl as a normal angiogenic development, and basic fibroblast growth factor (bFGF) as a pro-angiogenic control (20 μL at 10 ng·mL^-1). Once CAM were evaluated, membranes were fixed by adding 4% paraformaldehyde overnight at 4° C. Next, membranes were extracted and observed using a binocular loupe. Afterwards, the obtained images were processed and the density of the vessels in the CAM was automatically measured using ImageJ vessel analysis plugin [34].

For data set [4], the system named is New Zealand male albino rabbits. As to the kind of experiment: In vivo primary eye irritation test of Draize. Also on record: species or system rabbit. Here is the method:
All of the procedures were approved by the Ethical Committee for Animal Experimentation of the UB and current legislation (Decree 214/97, Gencat). The formulations were evaluated using primary eye irritation test of Draize to ensure the results obtained from the […] test. For this experiment, New Zealand male albino rabbits (2.0-2.5 kg, San Bernardo farm, Navarra, Spain) were used. 50 μL of each sample were instilled in the ocular conjunctival sac (n=3/group) and a mild massage was applied to guarantee the passage of the sample through the eyeball. […] The opposite untreated eye was used as a negative control. Draize test score was determined directly by observing the anterior segment of the eye and changes in the structures of the cornea (turbidity or opacity), iris and conjunctiva (congestion, chemosis, swelling and secretion).

Data set [5] concerns dry eye induced by 0.1% benzalkonium chloride. As to the kind of experiment: Dry eye disease model, fluorescein staining of the ocular surface. The format is in vivo, New Zealand white rabbits. To be noted: twice-daily topical, one week. As for the experimental part:
In order to evaluate the potential to treat dry eye of Loaded Lipid Nanoparticles, Schirmer test, fluorescein and Bengal rose assessments were performed against Lipid Nanoparticles, free APG and 0.15% hyaluronic acid (commercial solution Hyabak®). Twelve male New Zealand white rabbits (purchased from Livestock Research Institute, Council of Agriculture, Executive Yuan, Taiwan) weighing between 2.0 and 2.5 kg were used for the study. The rabbits were randomly divided into 4 groups: Lipid Nanoparticles, Loaded Lipid Nanoparticles, free APG solution and 0.15% hyaluronic acid (commercial solution (Hyabak®). All rabbits were housed at a room temperature of 23±2° C. with relative humidity 75±10% and alternating 12-hour light-dark cycles (8 a.m. to 8 p.m.). Both eyes of each rabbit were treated twice-daily by a topical administration of 0.1% benzalkonium chloride (BAC) drops for 2 weeks. On day 14, DES was confirmed by Schirmer test, fluorescein and Bengal rose staining. The treatment began after the confirmation of DES, where on eye of each rabbit was chosen randomly for twice-daily topical administration of Lipid Nanoparticles, Loaded Lipid Nanoparticles, free APG solution and a commercial solution. After one week of treatment, Schirmer test, fluorescein and Bengal rose staining were performed. Fluorescein staining is an effective method for ocular surface evaluation. […]

For data set [6], the system named is HCE-2 cells. Briefly: MTT cell viability in corneal cells. The settings on record: 5- and 15-minutes incubation. In kind it is cell-based, human. As for the experimental part: (§1) Human corneal epithelial cells (HCE-2) (LGC Standards, Barcelona, Spain) were cultured in keratinocyte serum-free growth medium (SFM; Life Technologies, Invitrogen, GIBCO®, Paisley, UK)). It was supplemented with bovine pituitary extract 0.05 mg·mL^−1 and epidermal growth factor 5 ng·mL^−1 containing insulin 0.005 mg·mL^−1 and penicillin 100 U·mL^−1 plus streptomycin […]. Cells were grown on a culture flask to 80% confluency in a humidified 10% CO2 atmosphere at 37° C. Human UM 92-1 cells were maintained in RPMI-1640 medium, added with 10% fetal bovine serum (FBS), 2 mM L-glutamine, 100 units/mL penicillin and […] streptomycin. For MTT assay, passages from 10 to 13 were used. All the cells were incubated at 37° C. and 10% CO2 [28].
Cytotoxicity of Loaded Lipid Nanoparticles and Lipid Nanoparticles was determined by MTT (3-(4,5-Dimethylthiazol-2-yl)-2,5-diphenyl tetrazolium bromide) assay, by reduction of tetrazolium salt by intracellular dehydrogenases of viable living cells. […] Cell viability was then measured at wavelength of 560 nm in a Modulus® Microplate Photometer (Turner BioSystems Inc., Sunnyvale, CA, USA). Results were expressed as percentage of cell survival relative to untreated cells.
The cytotoxicity of several concentrations of free APG, Loaded Lipid Nanoparticles, and the Lipid Nanoparticles (without APG) were evaluated on HCE-2 cells. […]

In data set [7] the test system is UM 92.1 cancer cells. Briefly: MTT cytotoxic capacity in ocular tumoral cells. The format is cell-based, human. The settings on record: 0.005-0.05 mg/mL, 24 h. Here is the method:
as §1
Cytotoxicity of Loaded Lipid Nanoparticles and Lipid Nanoparticles was determined by MTT (3-(4,5-Dimethylthiazol-2-yl)-2,5-diphenyl tetrazolium bromide) assay, by reduction of tetrazolium salt by intracellular dehydrogenases of viable living cells. […] Cell viability was then measured at wavelength of 560 nm in a Modulus® Microplate Photometer (Turner BioSystems Inc., Sunnyvale, CA, USA). Results were expressed as percentage of cell survival relative to untreated cells. […]

A short description of data set [8]: In vitro APG release, Franz-type diffusion cells. In kind it is in vitro ADME. As for the experimental part:
The in vitro APG release test for Loaded Lipid Nanoparticles was performed using Franz-type diffusion cells (Crown Glass, NY, USA) with a diffusion area of 0.20 cm^2 and dialysis membranes of cellulose (MWCO 12 kDa). A solution of PBS with 5% polysorbate 80 and 20% ethanol under continuous stirring was used as a receptor medium assuring sink conditions (ability of the medium to dissolve the expected amount of drug). The formulations were compared with free-APG solution. The assay was carried out at 32±0.5° C. along 48 h. 300 μL of each formulation were added to the donor compartment by direct contact with the membrane. At a certain timepoints, 150 μL of sample were collected with a syringe and the volume withdrawn was replaced with receptor solution. Drug content of the samples was analysed with HPLC. The test was performed by triplicate, and the cumulative amount of APG was calculated.

The subject of data set [9] is ocular inflammation induced by sodium arachidonate. Briefly: In vivo anti-inflammatory treatment study (sodium arachidonate). To be noted: applied 30 min after SA. Also on record: species or system New Zealand male albino rabbits. As for the experimental part:
In vivo anti-inflammatory effectiveness was carried out throughout the evaluation test for the inflammation prevention ability and the anti-inflammatory efficacy. Assays were carried out using New Zealand male albino rabbits (n=3/group), described previously. The activity of Loaded Lipid Nanoparticles in comparison with free APG, Lipid Nanoparticles, and NaCl 0.9% (control group) was measured. The inflammation prevention study consisted of the ocular application of 50 μL of each formulation. After 30 min of exposure, an inflammatory stimulus, 50 μL of 0.5% sodium arachidonate (SA) dissolved in PBS, was instilled in the right eye and the left eye was used as a control. In the anti-inflammatory treatment study, the inflammatory stimulus was applied 30 min before than the application of each formulation tested. The evaluation of prevention and treatment of each formulation were carried out from the first application up to 210 min, according to the Draize modified test scoring system.

Data set [10] has as its system dry eye induced by 0.1% benzalkonium chloride. Briefly: Dry eye disease model, Schirmer test (aqueous tear production). The format is in vivo, New Zealand white rabbits. The settings on record: twice-daily topical, one week. As for the experimental part: In order to evaluate the potential to treat dry eye of Loaded Lipid Nanoparticles, Schirmer test, fluorescein and Bengal rose assessments were performed against Lipid Nanoparticles, free APG and 0.15% hyaluronic acid (commercial solution Hyabak®). Twelve male New Zealand white rabbits (purchased from Livestock Research Institute, Council of Agriculture, Executive Yuan, Taiwan) weighing between 2.0 and 2.5 kg were used for the study. The rabbits were randomly divided into 4 groups: Lipid Nanoparticles, Loaded Lipid Nanoparticles, free APG solution and 0.15% hyaluronic acid (commercial solution (Hyabak®). All rabbits were housed at a room temperature of 23±2° C. with relative humidity 75±10% and alternating 12-hour light-dark cycles (8 a.m. to 8 p.m.). Both eyes of each rabbit were treated twice-daily by a topical administration of 0.1% benzalkonium chloride (BAC) drops for 2 weeks. On day 14, DES was confirmed by Schirmer test, fluorescein and Bengal rose staining. The treatment began after the confirmation of DES, where on eye of each rabbit was chosen randomly for twice-daily topical administration of Lipid Nanoparticles, Loaded Lipid Nanoparticles, free APG solution and a commercial solution. […] Tear production was measured using Schirmer test strips. […] After 5 min, the wetted length (mm) of the paper strips was recorded.

Data set [11] concerns chorioallantoic membrane of a fertilized chicken egg. As to the kind of experiment: In vitro ocular tolerance HET-CAM test. The settings on record: 300 μL, first 5 min. As for the experimental part: In vitro ocular tolerance was assessed using the HET-CAM test to ensure that the formulations of Loaded Lipid Nanoparticles were non-irritating when administered as eye-drops. Irritation, coagulation, and haemorrhage phenomena were measured by applying 300 μL of the formulation studied on chorioallantoic membrane of a fertilized chicken egg and monitoring it during the first 5 min after the application. This assay was conducted according to the guidelines of ICCVAM (The Interagency Coordinating Committee on the Validation of Alternative Methods). The development of the test was carried out using 3 eggs for each group (free APG, Loaded Lipid Nanoparticles, positive control (NaOH 0.1 M) and negative control (0.9% NaCl)). The ocular irritation index (OII) was calculated by the sum of the scores of each injury according to the following expression (Eq 3):
[formula] • where H, V and C are times (s) until the start of haemorrhage (H), vasoconstriction (V) and coagulation (C), respectively. The formulations were classified according to the following: OII≤0.9 non-irritating; 0.9<OII≤4.9 weakly irritating; 4.9<OII≤8.9 moderately irritating; 8.9<OII≤21 irritating.

In the case of `CCCCCCCCCCCCCCCCCC[N+](C)(C)CCCCCCCCCCCCCCCCCC.[Br-]` [DDAB, dimethyldioctadecylammonium bromide], the “toxicity in ocular delivery” value in [1] is on record as “had not shown any toxicity”.
As a reminder, the cell viability is the share of living cells, or the viability signal relative to a control. High values mean less harm to the cells, low ones more harm to the cells. With `O=c1cc(-c2ccc(O)cc2)oc2cc(O)cc(O)c12` [free APG, Apigenin], the “TBS quantitative result (irritancy)” value in data set [2] is recorded as “irritant”. In addition, the “vascular density versus negative control (NaCl)” value in [3] is “not significant”. In addition, the “Draize test irritancy in vivo” value in [4] (50 μL in conjunctival sac) is recorded as “non-irritant”. Besides, in [4] (in vivo), the discomfort after instillation result is given as “caused an initial discomfort”. In addition, the “fluorescein staining score, corneal surface” value in data set [5] is “worse punctuation in the staining”. The compound further returned a cell viability in data set [6] of at least 80%. The “cell viability / toxicity” value in [6] (all the tested concentrations) was “did not show toxicity”. In addition, the “cytotoxicity against cancer cells” value in data set [7] is given as “significant toxicity”. Also, the “in vitro release profile” value in [8] (48 h) is reported as “faster release”. Also, in [8] (at 24 h, 32° C., PBS with 5% polysorbate 80 and 20% ethanol), the APG released is 100%. In data set [9], the inflammation treatment effect result was “able to treat fast the inflammation”. Further, in [10], the “tear flow (Schirmer test) versus dry eye group” value was “did not improve the tear flow”.
With `[Na+].[OH-]` [NaOH], the HET-CAM irritation classification entry in data set [11] is on record as “severe irritant”.

The values above are taken from US20260232590A1, “LIPID NANOPARTICLES FOR THE TREATMENT OF OCULAR DISEASES” (UNIVERSITAT DE BARCELONA, priority 2023, published 2026).
